Results: US20120277161A1, “INHIBITION OF MULTIPLE CELL ACTIVATION PATHWAYS” (INTER-K PTY LIMITED, priority 2009, published 2012)

How the values were obtained:
c-SRC (h) = c-SRC (h) (Homo sapiens, UniProt P12931); assay: c-Src kinase activity assay (cell-free, 33P-ATP); type: biochemical
Procedure: In a final reaction volume of 25 μL, c-SRC (h) (5-10 mU) is incubated with 8 mM MOPS pH 7.0, 0.2 mM EDTA, 250 μM KVEKIGEGTYGVVYK (SEQ ID No. 19) (Cdc2 peptide), 10 mM MgAcetate and [γ-33P-ATP] (specific activity approx. 500 cpm/pmol, concentration as required). The reaction is initiated by the addition of the MgATP mix. After incubation for 40 minutes at room temperature, the reaction is stopped by the addition of 5 μL of a 3% phosphoric acid solution. 10 μL of the reaction is then spotted onto a P30 filtermat and washed three times for 5 minutes in 75 mM phosphoric acid and once in methanol prior to drying and scintillation counting.

human Lyn = human Lyn (Homo sapiens, UniProt P07948); assay: Lyn kinase activity assay; type: biochemical; conditions: 20 μM
Sequence of human Lyn (P07948 whole entry): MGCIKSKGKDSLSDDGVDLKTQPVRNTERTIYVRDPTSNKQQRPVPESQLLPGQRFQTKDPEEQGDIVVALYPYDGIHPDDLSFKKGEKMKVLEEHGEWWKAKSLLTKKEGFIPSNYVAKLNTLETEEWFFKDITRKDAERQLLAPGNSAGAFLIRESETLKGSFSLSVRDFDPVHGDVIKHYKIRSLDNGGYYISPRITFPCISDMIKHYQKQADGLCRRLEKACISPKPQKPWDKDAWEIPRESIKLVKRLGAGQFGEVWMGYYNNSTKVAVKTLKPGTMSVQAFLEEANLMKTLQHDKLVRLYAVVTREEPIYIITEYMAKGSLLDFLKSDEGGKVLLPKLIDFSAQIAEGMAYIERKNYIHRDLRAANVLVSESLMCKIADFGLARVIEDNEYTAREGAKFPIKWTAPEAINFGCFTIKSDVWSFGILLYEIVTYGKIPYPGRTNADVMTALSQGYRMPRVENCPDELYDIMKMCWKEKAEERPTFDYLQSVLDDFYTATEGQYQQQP
Procedure: In a final reaction volume of 25 μl, human Lyn is incubated with the RSKAKNPLYR peptide (SEQ ID No: 6) in 50 mM Tris buffer pH 7.5, 0.1 mM EGTA, 0.1 mM Na3VO4, 1% mercaptoethanol, 0.1 mg/ml poly(Glu,Tyr) 4:1, 10 mM Mg acetate and [γ-33P-ATP] (specific activity approx. 500 cpm/pmol). The reaction was initiated by the addition of the MgATP mix, incubated for 40 minutes at room temperature prior to being stopped and kinase activity assessed by scintillation counting as per the protocol described for c-Src described in Example 1.1.

mTOR = mTOR (Homo sapiens, UniProt P42345); assay: mTOR activity; type: biochemical; conditions: 20 μM, data not shown
FAK = FAK (Homo sapiens, UniProt Q05397); assay: FAK activity; type: biochemical; conditions: 20 μM, data not shown
Sequence of FAK (Q05397 whole entry, species assumed): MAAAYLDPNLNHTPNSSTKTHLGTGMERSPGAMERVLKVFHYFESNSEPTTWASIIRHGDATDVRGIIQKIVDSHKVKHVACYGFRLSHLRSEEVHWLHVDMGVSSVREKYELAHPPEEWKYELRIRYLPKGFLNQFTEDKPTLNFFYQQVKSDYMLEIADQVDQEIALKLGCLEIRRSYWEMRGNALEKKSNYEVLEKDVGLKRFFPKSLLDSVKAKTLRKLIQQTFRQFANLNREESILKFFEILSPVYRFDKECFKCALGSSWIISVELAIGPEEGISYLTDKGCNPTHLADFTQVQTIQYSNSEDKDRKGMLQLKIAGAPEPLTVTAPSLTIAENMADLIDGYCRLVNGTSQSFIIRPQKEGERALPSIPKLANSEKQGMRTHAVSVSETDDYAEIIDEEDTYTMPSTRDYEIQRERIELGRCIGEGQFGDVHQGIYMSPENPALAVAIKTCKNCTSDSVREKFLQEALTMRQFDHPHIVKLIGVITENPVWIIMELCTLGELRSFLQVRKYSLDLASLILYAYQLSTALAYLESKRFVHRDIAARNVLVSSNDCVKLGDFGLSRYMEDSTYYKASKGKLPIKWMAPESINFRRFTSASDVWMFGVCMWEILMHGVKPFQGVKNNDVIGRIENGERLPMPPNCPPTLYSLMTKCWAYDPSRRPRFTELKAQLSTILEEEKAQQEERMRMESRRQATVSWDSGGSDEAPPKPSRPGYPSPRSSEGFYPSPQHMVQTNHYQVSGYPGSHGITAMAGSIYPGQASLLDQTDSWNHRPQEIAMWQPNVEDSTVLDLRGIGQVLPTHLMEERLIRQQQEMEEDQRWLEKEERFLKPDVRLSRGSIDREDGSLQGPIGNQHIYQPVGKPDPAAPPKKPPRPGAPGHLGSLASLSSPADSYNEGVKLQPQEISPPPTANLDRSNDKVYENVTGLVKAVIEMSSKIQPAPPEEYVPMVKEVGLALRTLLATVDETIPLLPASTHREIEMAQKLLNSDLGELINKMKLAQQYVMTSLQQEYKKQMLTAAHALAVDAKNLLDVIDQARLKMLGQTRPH

kinases listed Table 2 = assay: Kinase dose response study (kinases listed Table 2); type: biochemical; conditions: range over all kinases of Table 2; read-out: IC50 percentage inhibition of activity for all the kinases
Procedure: In a dose response study, the inhibition of the activity of the kinases listed Table 2 at increasing concentrations of dendrimer Dend 10-10(4)DP (see Example 2.3) was assessed employing the treatment protocols described in Examples 1 to 3. As shown in the table, inhibition of kinase activity was obtained by the dendrimer at all the concentrations tested. The IC50 percentage inhibition of activity for all the kinases was in the range of from 0.25-2.0 μM. The results shown in Table 2 are percentage inhibition relative to controls. Comparative dose results for 1 μM dendrimer Dend 10-10(4) are also shown.

[1] = test system: MKN45 gastric carcinoma cells; assay: MTT growth/proliferation, MKN45 cells; type: cell-based; conditions: 48 hours
Procedure: In this study, the cells were incubated in the presence of the dendrimer for 48 hours. Cell lines were maintained at 37° C. in a humid atmosphere containing 5% CO2. Cells were passaged at pre-confluent densities using a solution containing 0.05% trypsin and 0.5 mM EDTA (Invitrogen).

[2] = test system: HT29 human colorectal adenocarcinoma tumour; assay: Inhibition of HT29 tumour growth in a mouse model; type: in vivo, Mouse (Mus musculus) BALB/c nu/nu; conditions: for Tumour volume Delta avg: change from day 0; for dT/dC [%]: versus vehicle
Procedure: HT29 human colorectal adenocarcinoma cells were cultured in RPMI 1640 cell culture medium supplemented with 10% v/v heat inactivated FCS and 50 IU/mL penicillin-streptomycin. The cells were harvested by trypsinisation, washed twice in HBSS and counted. The cells were then resuspended in HBSS to a final concentration of 2×10^7 cells/mL.
Prior to inoculation the skin on the injection site (dorsal right flank) was swabbed with alcohol. The needle was introduced through the skin into the subcutaneous space just below the animal's right shoulder, and 100 μL of cells (2×10^6 cells) were discharged. The treatment of mice began nine days after HT29 cell inoculation, the average tumour volume was 68 mm^3 (average variability of 6.1%).
Body weight and tumour dimensions (length and diameter) were measured for all animals on the first day of treatment (day 0) and then three times per week, including the termination day of the study (Day 24).
Mice were randomized, based on body weight, into two groups of ten mice on Day 0 of the study. The peptide dendrimer Dend 10-10(4) presenting 10 monomer units of the peptide RSKAKNPLYR (SEQ ID No. 6) (see Example 2) was used in this study. The vehicle control (phosphate buffered saline (PBS)) and Dend 10-10(4) dendrimer (20 mg/kg) were each administered by intra-tumoural injection once daily for five consecutive days, beginning on Day 0.
The vehicle control and Dend 10-10(4) dendrimer were administered at a dosing volume of 4.762 mL/kg (100 μL) based on a 21 g mouse. Each animal's body weight was measured immediately prior to dosing. The volume of dosing solution administered to each mouse was calculated and adjusted based on individual body weight.
Tumours were excised from all mice post mortem and weighed. Tumour volume was calculated using the equation:
V (mm^3)=length×diameter^2×π/6
ΔT/ΔC (%) was calculated using the following equation:
ΔT/ΔC %=(ΔvolumeTreatment/ΔVolumeControl)×100
where Δ=change in volume from day 0 to the final measurement day or nominated day of interest.

Molecule: Dend 10-10(4) whose RSKAKNPLYR peptides are entirely D-amino acids and pegylated with two ethylene glycol units [Dend 10-10(4)DP]
- inhibition of c-Src activity compared to peptide RSKAKNPLYR alone (c-SRC (h)): no increase in the inhibition of c-Src activity
- inhibition of the activity of c-Lyn relative to controls (human Lyn): 96%
- effect on activity of mTOR (mTOR): without any effect
- effect on activity of FAK (FAK): without any effect
- IC50 (kinases listed Table 2): 250 to 2000 nM
- inhibition of growth/proliferation of MKN45 cells [1]: inhibited growth/proliferation

Molecule: CC(C)C[C@H](NC(=O)[C@@H]1CCCN1C(=O)[C@H](CC(N)=O)NC(=O)[C@H](CCCCN)NC(=O)[C@H](C)NC(=O)[C@H](CCCCN)NC(=O)[C@H](CO)NC(=O)[C@@H](N)CCCNC(=N)N)C(=O)N[C@@H](Cc1ccc(O)cc1)C(=O)N[C@@H](CCCNC(=N)N)C(=O)NCCCC[C@H](NC(=O)[C@H](CCCCNC(=O)[C@H](CCCCNC(=O)[C@H](CCCNC(=N)N)NC(=O)[C@H](Cc1ccc(O)cc1)NC(=O)[C@H](CC(C)C)NC(=O)[C@@H]1CCCN1C(=O)[C@H](CC(N)=O)NC(=O)[C@H](CCCCN)NC(=O)[C@H](C)NC(=O)[C@H](CCCCN)NC(=O)[C@H](CO)NC(=O)[C@@H](N)CCCNC(=N)N)NC(=O)[C@H](CCCNC(=N)N)NC(=O)[C@H](Cc1ccc(O)cc1)NC(=O)[C@H](CC(C)C)NC(=O)[C@@H]1CCCN1C(=O)[C@H](CC(N)=O)NC(=O)[C@H](CCCCN)NC(=O)[C@H](C)NC(=O)[C@H](CCCCN)NC(=O)[C@H](CO)NC(=O)[C@@H](N)CCCNC(=N)N)NC(=O)[C@H](CCCCNC(=O)[C@H](CCCNC(=N)N)NC(=O)[C@H](Cc1ccc(O)cc1)NC(=O)[C@H](CC(C)C)NC(=O)[C@@H]1CCCN1C(=O)[C@H](CC(N)=O)NC(=O)[C@H](CCCCN)NC(=O)[C@H](C)NC(=O)[C@H](CCCCN)NC(=O)[C@H](CO)NC(=O)[C@@H](N)CCCNC(=N)N)NC(=O)[C@H](CCCNC(=N)N)NC(=O)[C@H](Cc1ccc(O)cc1)NC(=O)[C@H](CC(C)C)NC(=O)[C@@H]1CCCN1C(=O)[C@H](CC(N)=O)NC(=O)[C@H](CCCCN)NC(=O)[C@H](C)NC(=O)[C@H](CCCCN)NC(=O)[C@H](CO)NC(=O)[C@@H](N)CCCNC(=N)N)C(=O)NCCCC[C@H](NC(=O)[C@H](CCCCNC(=O)[C@H](CCCNC(=N)N)NC(=O)[C@H](Cc1ccc(O)cc1)NC(=O)[C@H](CC(C)C)NC(=O)[C@@H]1CCCN1C(=O)[C@H](CC(N)=O)NC(=O)[C@H](CCCCN)NC(=O)[C@H](C)NC(=O)[C@H](CCCCN)NC(=O)[C@H](CO)NC(=O)[C@@H](N)CCCNC(=N)N)NC(=O)[C@H](CCCCNC(=O)[C@H](CCCCNC(=O)[C@H](CCCNC(=N)N)NC(=O)[C@H](Cc1ccc(O)cc1)NC(=O)[C@H](CC(C)C)NC(=O)[C@@H]1CCCN1C(=O)[C@H](CC(N)=O)NC(=O)[C@H](CCCCN)NC(=O)[C@H](C)NC(=O)[C@H](CCCCN)NC(=O)[C@H](CO)NC(=O)[C@@H](N)CCCNC(=N)N)NC(=O)[C@H](CCCNC(=N)N)NC(=O)[C@H](Cc1ccc(O)cc1)NC(=O)[C@H](CC(C)C)NC(=O)[C@@H]1CCCN1C(=O)[C@H](CC(N)=O)NC(=O)[C@H](CCCCN)NC(=O)[C@H](C)NC(=O)[C@H](CCCCN)NC(=O)[C@H](CO)NC(=O)[C@@H](N)CCCNC(=N)N)NC(=O)[C@H](CCCCNC(=O)[C@H](CCCNC(=N)N)NC(=O)[C@H](Cc1ccc(O)cc1)NC(=O)[C@H](CC(C)C)NC(=O)[C@@H]1CCCN1C(=O)[C@H](CC(N)=O)NC(=O)[C@H](CCCCN)NC(=O)[C@H](C)NC(=O)[C@H](CCCCN)NC(=O)[C@H](CO)NC(=O)[C@@H](N)CCCNC(=N)N)NC(=O)[C@H](CCCNC(=N)N)NC(=O)[C@H](Cc1ccc(O)cc1)NC(=O)[C@H](CC(C)C)NC(=O)[C@@H]1CCCN1C(=O)[C@H](CC(N)=O)NC(=O)[C@H](CCCCN)NC(=O)[C@H](C)NC(=O)[C@H](CCCCN)NC(=O)[C@H](CO)NC(=O)[C@@H](N)CCCNC(=N)N)C(=O)NCCC(N)=O [Dend 10-10(4)]
- Tumour volume Average ([2]; 20 mg/kg intra-tumoural once daily for five days, Day 0): 68.0 mm^3
- Tumour volume Average ([2]; 20 mg/kg intra-tumoural once daily for five days, Day 2): 136.6 mm^3
- Tumour volume Average ([2]; 20 mg/kg intra-tumoural once daily for five days, Day 4): 211.9 mm^3
- Tumour volume Average ([2]; 20 mg/kg intra-tumoural once daily for five days, Day 7): 248.6 mm^3
- Tumour volume Average ([2]; 20 mg/kg intra-tumoural once daily for five days, Day 11): 300.9 mm^3
- Tumour volume Average ([2]; 20 mg/kg intra-tumoural once daily for five days, Day 14): 323.9 mm^3
- Tumour volume Average ([2]; 20 mg/kg intra-tumoural once daily for five days, Day 16): 391.0 mm^3
- Tumour volume Average ([2]; 20 mg/kg intra-tumoural once daily for five days, Day 18): 476.9 mm^3
- Tumour volume Average ([2]; 20 mg/kg intra-tumoural once daily for five days, Day 21): 601.5 mm^3
- Tumour volume Average ([2]; 20 mg/kg intra-tumoural once daily for five days, Day 24): 702.1 mm^3
- average tumour weight at the end of the study ([2]; 20 mg/kg intra-tumoural once daily for five days, Day 24, control 0.962 g): 0.437 g
- tumour growth compared to the vehicle only control ([2]; FIG. 16): markedly inhibited
- Tumour volume Delta avg ([2]; Day 0): 0.0 mm^3
- Tumour volume Delta avg ([2]; Day 2): 68.6 mm^3
- Tumour volume Delta avg ([2]; Day 4): 144.0 mm^3
- Tumour volume Delta avg ([2]; Day 7): 180.6 mm^3
- Tumour volume Delta avg ([2]; Day 11): 232.9 mm^3
- Tumour volume Delta avg ([2]; Day 14): 255.9 mm^3
- Tumour volume Delta avg ([2]; Day 16): 323.1 mm^3
- Tumour volume Delta avg ([2]; Day 18): 408.9 mm^3
- Tumour volume Delta avg ([2]; Day 21): 598.7 mm^3
- Tumour volume Delta avg ([2]; Day 24): 710.4 mm^3
- dT/dC [%] ([2]; Day 0): 100.0%
- dT/dC [%] ([2]; Day 2): 134.3%
- dT/dC [%] ([2]; Day 4): 102.0%
- dT/dC [%] ([2]; Day 7): 68.1%
- dT/dC [%] ([2]; Day 11): 58.0%
- dT/dC [%] ([2]; Day 14): 44.6%
- dT/dC [%] ([2]; Day 16): 45.2%
- dT/dC [%] ([2]; Day 18): 47.1%
- dT/dC [%] ([2]; Day 21): 55.7%
- dT/dC [%] ([2]; Day 24): 54.5%
